We go through four compounds from PubChem BioAssay (NCI).

Among the test systems are OVCAR-5 ovarian; SW-620 colon; CCRF-CEM leukemia; SK-MEL-28 melanoma; COLO 205 colon; NCI-H226 lung; NCI-H522 lung; HL-60(TB) leukemia; SF-539 CNS; HOP-92 NSCLC.
What all share (assay): NCI-60 cell line screen, 48 h

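A five-concentration, 48-hour dose response in 96-well plates underlies each endpoint, interpolated linearly between surrounding concentrations. The concentration for 50% growth inhibition is given as GI50. The concentration for full growth arrest is given as TGI.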

Take `CCc1ccc2c(c1)C(=O)c1c-2n(CCCBr)c(=O)c2cc([N+](=O)[O-])ccc12`: the GI50 was more than 50 µM in the test on OVCAR-5 ovarian; more than 50 µM in the test with SW-620 colon; more than 50 µM in the test with CCRF-CEM leukemia; more than 50 µM in the test on SK-MEL-28 melanoma; more than 50 µM in the test with COLO 205 colon; 27.7 µM with NCI-H226 lung. Besides, the GI50 in the test with NCI-H522 lung was 45.9 µM; in the test on HL-60(TB) leukemia it was more than 50 µM; with SF-539 CNS it was 28.4 µM; with HOP-92 NSCLC, 16 µM. Also, the TGI with OVCAR-5 ovarian, with SW-620 colon, with CCRF-CEM leukemia, with SK-MEL-28 melanoma, with COLO 205 colon and in the test on NCI-H226 lung was more than 50 µM each time. In addition, the TGI in the test with NCI-H522 lung, with HL-60(TB) leukemia, in the test on SF-539 CNS and with HOP-92 NSCLC was more than 50 µM in each case.
`Nc1cc2nc3ccccc3sc-2cc1=O`: the GI50 in the test with OVCAR-5 ovarian was 1.93 µM; in the test with SW-620 colon, 2.95 µM; with CCRF-CEM leukemia it was 2.47 µM; with SK-MEL-28 melanoma it was 2.12 µM; in the test on COLO 205 colon, 2.16 µM; with NCI-H226 lung, 4.62 µM. The GI50 with NCI-H522 lung was 2.46 µM; in the test with HL-60(TB) leukemia it was 2.07 µM; in the test with SF-539 CNS it was 2.01 µM; with HOP-92 NSCLC, 2.77 µM. Also, the TGI was 4.08 µM in the test with OVCAR-5 ovarian; 10.4 µM in the test on SW-620 colon; more than 100 µM in the test on CCRF-CEM leukemia; 4.04 µM in the test on SK-MEL-28 melanoma; 4.61 µM in the test on COLO 205 colon; 28.4 µM with NCI-H226 lung. Also, the TGI came out at 5.87 µM with NCI-H522 lung, 5.78 µM with HL-60(TB) leukemia, 4.26 µM in the test on SF-539 CNS and 9.59 µM in the test with HOP-92 NSCLC.
`CC(C)c1ccc(C(C)C(=O)N(CC2=C(C(C)c3ccccn3)c3ccccc3C2)C(C)C)cc1` (stereo not given): the GI50 was 5.33 µM with OVCAR-5 ovarian; 3.18 µM with SW-620 colon; 3.25 µM with CCRF-CEM leukemia; 10.8 µM in the test on SK-MEL-28 melanoma; 1.75 µM in the test on COLO 205 colon; 2.68 µM in the test with NCI-H226 lung. The GI50 in the test on NCI-H522 lung is 2.59 µM; in the test with HL-60(TB) leukemia it was 2.15 µM; in the test on SF-539 CNS it was 5.62 µM; in the test on HOP-92 NSCLC it was 1.98 µM. Further, the TGI with OVCAR-5 ovarian amounted to 95.9 µM; in the test on SW-620 colon it was 15.8 µM; in the test on CCRF-CEM leukemia it was 22 µM; with SK-MEL-28 melanoma, 66.2 µM; in the test with COLO 205 colon, 3.23 µM; with NCI-H226 lung, 21.7 µM. For the same compound, the TGI in the test on NCI-H522 lung worked out at 15.7 µM; in the test on HL-60(TB) leukemia, 5.44 µM; in the test with SF-539 CNS, 26.7 µM; with HOP-92 NSCLC, 12.8 µM.
In the case of `Cc1ccc(-c2nnc(-c3ccc4ccccc4c3)o2)cc1`, the TGI with OVCAR-5 ovarian was more than 100 µM; with SW-620 colon it was more than 100 µM; in the test on CCRF-CEM leukemia, more than 25 µM; with SK-MEL-28 melanoma, more than 100 µM; in the test on COLO 205 colon, more than 100 µM; with NCI-H226 lung, 99.9 µM. Further, the TGI is more than 100 µM in the test with NCI-H522 lung, more than 21.9 µM with HL-60(TB) leukemia, more than 60.2 µM in the test on SF-539 CNS and more than 100 µM with HOP-92 NSCLC.
